Data: paper PMC8400955 (Pharmaceuticals, 2021)

Key:
mouse plasma proteins = assay: Plasma protein binding by equilibrium dialysis, mouse; format: in vitro ADME; conditions: for Remaining: 6 h
Procedure: (§1) The in vitro binding of ZB716 to plasma proteins was determined by equilibrium dialysis technique in mouse, rat, dog, monkey, and human plasma (EDTA-K2 as anticoagulant), over the concentration range of 0.1–10 μM. The free concentration of ZB716 was below the lower limit of quantitation at 0.1, 1, and 10 μM in human, monkey, dog, rat, and mouse plasma.
(§2) The equilibrium dialysis method was used to investigate the in vitro binding of ZB716 to human, monkey, dog, rat, and mouse plasma proteins. The dialysis phosphate buffer solution (100 mM, pH 7.4) and plasma samples containing 0.1, 1, and 10 μM of ZB716 were added to separate chambers of dialysis wells of the HTDialysis device. The dialysis plate was placed in an incubator at 37 °C with 5% CO2 at approximately 100 rpm for 6 h. After incubation, the seal was removed, and 50 μL each of post-dialysis samples was pipetted from both the buffer and plasma chambers into fresh 96-well plates. The samples were analyzed via UPLC–MS/MS. The bound fraction, unbound fraction, recovery (%), and remaining (%) were calculated by Equations (2)–(5):%Unbound = (Conc.buffer chamber/Conc.plasma chamber) × 100(2) %Bound = 100% − %Unbound (3) %Recovery = (Conc.buffer chamber + Conc.plasma chamber)/Conc.Total sample × 100 (4) %Remaining = Conc.6h/Conc.0h × 100 (5)

[1] = as above; format: in vitro ADME; conditions: plasma (EDTA-K2 as anticoagulant)
Procedure: as §1, §2

[2] = 4-week repeat-dose toxicity/TK study in dogs; format: in vivo, beagle dogs; conditions: for AUC(0-t) / Cmax / Tmax: beagle, dog, plasma, po
Procedure: The TK of ZB716 was investigated in a 4-week repeat-dose toxicity study in dogs. Groups of dogs (n = 3/sex/group) were orally administered ZB716 (5% EtOH, 15% PG, 5% Solutol, and 75% of 40% HP-β-CD in DI water) at dose levels of 25, 100, and 200 mg/kg/day for 4 weeks. The plasma concentration of ZB716 was measured at various times up through to 24 h post-dose on days 1 and 28. […] The lower exposure in females given 200 mg/kg/day on day 1 was likely due to emesis noted in all females in this group.
Four-to-six-week-old Sprague Dawley rats (Crl: CD (SD)) (SPF/VAF) were purchased from Beijing Vital River Laboratory Animal Technology, Co. Ltd.). Six-month-old beagle dogs were purchased from Beijing Marshall Biotechnology Co. Ltd. Animals were quarantined/acclimated for 2–6 weeks prior to dose initiation. Both Sprague Dawley rats and beagle dogs were given oral administration of ZB716 (20% PG, 5% Solutol, and 75% of 40% HP-β-CD in water) at different dose levels. After treatment with the test articles, whole blood was collected from each study animal by puncture of the tail vein (0.4 mL of whole blood from rats) and/or the peripheral vein (0.6 mL of whole blood from dogs) into tubes containing K2EDTA at each timepoint: pre-dose, and 0.5, 1, 2, 4, 8, and 24 h post-dose. The plasma samples were divided into 2 aliquots (approximately equal in volume) and stored frozen at −75 ± 15 °C within 2 h of the collection until analysis at Pharmaron, China.
The stock solution of ZB716 (5.0 mg/mL) and ZB716-d6 (1 mg/mL) in ACN:DI Water = 1:1 was prepared and stored at −20 ± 5 °C. The desired serial concentrations of working reference analyte solutions were achieved by diluting a stock analyte solution with 50% acetonitrile (0.1% formic acid) in water solution. The bioanalytical LC–MS/MS method was validated for quantitative determination of ZB716 in Sprague Dawley rat plasma and beagle dog plasma, with acceptable selectivity, sensitivity, calibration curve, precision, and accuracy. This method is applicable for the determination of ZB716 in Sprague Dawley rat plasma and beagle dog plasma, with a lower limit of quantification of 20.0 ng/mL, and an upper limit of quantification of 10,000 ng/mL.
Five microliters of diluted supernatant was injected into the LC–MS/MS system (Shimadzu LC30AD HPLC system with a SynergiTM 4 μm Fusion-RP 80 Å (50 × 2 mm) column using gradient elution and a Triple Quad 5500 mass spectrometer) for quantitative analysis. The mobile phases used were 0.1% formic acid in deionized water and 0.1% formic acid in acetonitrile. The pharmacokinetic parameters T1/2 (the biological half-life), Cmax (maximal concentration), Tmax (time at which Cmax is observed), and AUC (area under the plasma concentration–time curve) were calculated from the plasma concentration versus time data using WinNonlin (Phoenix^TM, version 8.1, Mountain View, CA, USA). All PK studies were conducted by Pharmaron in Beijing, China.

[3] = female, 25 mg/kg/day, day 1, PO 25 mg/kg/day, F
[4] = female, 25 mg/kg/day, day 28, PO 25 mg/kg/day, F
[5] = female, 100 mg/kg/day, day 1, PO 100 mg/kg/day, F
[6] = female, 100 mg/kg/day, day 28, PO 100 mg/kg/day, F
[7] = female, 200 mg/kg/day, day 1, PO 200 mg/kg/day, F
[8] = female, 200 mg/kg/day, day 28, PO 200 mg/kg/day, F
[9] = male, 25 mg/kg/day, day 1, PO 25 mg/kg/day, M
[10] = male, 25 mg/kg/day, day 28, PO 25 mg/kg/day, M
[11] = male, 100 mg/kg/day, day 1, PO 100 mg/kg/day, M
[12] = male, 100 mg/kg/day, day 28, PO 100 mg/kg/day, M
[13] = male, 200 mg/kg/day, day 1, PO 200 mg/kg/day, M
[14] = male, 200 mg/kg/day, day 28, PO 200 mg/kg/day, M

C[C@]12CC[C@@H]3c4ccc(B(O)O)cc4C[C@@H](CCCCCCCCC[S+]([O-])CCCC(F)(F)C(F)(F)F)[C@H]3[C@@H]1CC[C@@H]2O (stereo partly shown) [ZB716, fulvestrant-3-boronic acid]
Bound (mouse plasma proteins; 0.1 μM): >97.4% | Unbound (mouse plasma proteins; 0.1 μM): <2.63% | Remaining (mouse plasma proteins; 0.1 μM): 98.5 ± 14.5% | Bound (mouse plasma proteins; 1 μM): >99.7% | Unbound (mouse plasma proteins; 1 μM): <0.266% | Remaining (mouse plasma proteins; 1 μM): 92.2 ± 5.7% | Bound (mouse plasma proteins; 10 μM): >99.97% | Unbound (mouse plasma proteins; 10 μM): <0.0272% | Remaining (mouse plasma proteins; 10 μM): 97.4 ± 10.7% | recovery at 6 h, 0.1 μM ([1]; pH 7.4, 0.1 μM): < 96% | recovery at 6 h, 1 μM ([1]; pH 7.4, 1 μM): < 88.8% | recovery at 6 h, 10 μM ([1]; pH 7.4, 10 μM): < 95% | AUC(0-t) [2, 3]: 3880 ng·h/mL | Cmax [2, 3]: 772 ng/mL | Tmax [2, 3]: 1 h | AUC(0-t) [2, 4]: 8000 ng·h/mL | Cmax [2, 4]: 1590 ng/mL | Tmax [2, 4]: 1 h | AUC(0-t) [2, 5]: 4490 ng·h/mL | Cmax [2, 5]: 997 ng/mL | Tmax [2, 5]: 1 h | AUC(0-t) [2, 6]: 9650 ng·h/mL | Cmax [2, 6]: 1870 ng/mL | Tmax [2, 6]: 2 h | AUC(0-t) [2, 7]: 2720 ng·h/mL | Cmax [2, 7]: 583 ng/mL | Tmax [2, 7]: 2 h | AUC(0-t) [2, 8]: 14900 ng·h/mL | Cmax [2, 8]: 1810 ng/mL | Tmax [2, 8]: 2 h | AUC(0-t) [2, 9]: 1980 ng·h/mL | Cmax [2, 9]: 691 ng/mL | Tmax [2, 9]: 0.5 h | AUC(0-t) [2, 10]: 4330 ng·h/mL | Cmax [2, 10]: 1390 ng/mL | Tmax [2, 10]: 1 h | AUC(0-t) [2, 11]: 4570 ng·h/mL | Cmax [2, 11]: 1400 ng/mL | Tmax [2, 11]: 1 h | AUC(0-t) [2, 12]: 12400 ng·h/mL | Cmax [2, 12]: 3340 ng/mL | Tmax [2, 12]: 2 h | AUC(0-t) [2, 13]: 7880 ng·h/mL | Cmax [2, 13]: 1040 ng/mL | Tmax [2, 13]: 2 h | AUC(0-t) [2, 14]: 11000 ng·h/mL | Cmax [2, 14]: 2130 ng/mL | Tmax [2, 14]: 2 h | tolerability ([2]; oral once daily, doses up to 200 mg/kg/day for 28 consecutive days): tolerated
